Experimental data reported in PMC12844335, “Cycloruthenated Imines: A Step into the Nanomolar Region” (Molecules, 2026).
Like-named read-outs stand apart in the source and are kept apart here.

Key:
[1] = tested on: HEK293 human embryonic kidney cell line; assay: MTT antiproliferative assay, HEK293; assay type: cell-based; details: for Selectivity Index, SI: IC50 on HEK293 divided on IC50 on A2780; for IC50: MTT, 72 h incubation, mean ± SD of three independent experiments;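 on all read-outs here: cells grown at 37 °C under humidified 5% CO2, cisplatin run alongside as positive control, each test in triplicate wells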
Experimental: (§1) The in vitro antiproliferative activity of the synthesized Ru-organometallic compounds and several starting ligands was evaluated against three human cell lines using the MTT assay. We selected a small panel of cell lines that provided insights into the efficacy and potential therapeutic utility of the compounds. The panel includes the A2780 human ovarian carcinoma cell line, which is sensitive to cisplatin, its cisplatin-resistant counterpart, A2780cis, also a non-malignant human embryonic kidney cell line, HEK293. The use of A2780 and A2780cis paired cell lines allowed us to directly assess the ability of the compounds to overcome resistance mechanisms. The inclusion of the HEK293 cell line can give us preliminary indication of selectivity against non-cancerous cells. Cisplatin, a clinically used drug, was used as a positive control in all experiments. All studies were performed in triplicate and repeated in three independent experiments.
(§2) The human A2780 ovarian adenocarcinoma, A2780cis cisplatin resistant ovarian adenocarcinoma, HEK293 human embryonic kidney cell lines were obtained from the European collection of authenticated cell cultures (ECACC; Salisbury, UK). Cells were grown in a RPMI 1640 (Gibco™, Cork, Ireland) cell medium (A2780, A2780cis), or DMEM (Gibco™, Ireland) cell medium (HEK293) supplemented with 10% fetal bovine serum (Gibco™, São Paulo, Brazil). The cells were cultured in an incubator at 37 °C in a humidified 5% CO2 atmosphere and were subcultured two times a week. The antiproliferative activity was studied by MTT assays as published previously [38].

[2] = tested on: A2780cis cisplatin resistant ovarian adenocarcinoma; assay: MTT antiproliferative assay, A2780cis; assay type: cell-based, human; details: for Rf resistance coefficient: IC50 on A2780cis divided on IC50 on A2780; for IC50: MTT, 72 h incubation, mean ± SD of three independent experiments;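 on all read-outs here: antiproliferative MTT assay with 72 h exposure on cisplatin-resistant A2780cis versus parent A2780 cells, cisplatin as positive control, triplicate wells in each of three independent experiments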
Experimental: as §1, §2

[3] = tested on: A2780 human ovarian carcinoma cell line; assay: MTT antiproliferative assay, A2780; assay type: cell-based; details: mean ± SD of three independent experiments, read-out: IC50 (72 h) А2780
Experimental: as §1, §2

[4] = Homo sapiens, A2780, 72 h incubation

Row | IC50 ([2]; Homo sapiens, A2780cis) [nM] | IC50 [3, 4] [nM] | SMILES | Selectivity Index, SI [1] | IC50 [1] [nM] | Rf resistance coefficient [2] | IC50 [2] [nM] | IC50 ([3]; 72 h incubation) [nM] | IC50 ([1]; Homo sapiens, HEK293) [nM]
1 |  |  | FC(F)(F)c1ccc([N+]2=Cc3cccc[c]3[Ru-4]234([n+]2ccccc2-c2cccc[n+]23)[n+]2ccccc2-c2cccc[n+]24)cc1.F[P-](F)(F)(F)(F)F [Compound 3i, Bis(2,2′-bipiridine)[N-((phenyl-κC^2)methyliden]-4-(trifluoromethyl)aniline-κN]ruthenium(II) hexafluorophosphate] | 1.3 | 107 ± 8 | 3.0 | 240 ± 20 | 80 ± 10 | 
2 |  |  | CCc1ccc([N+]2=Cc3cccc[c]3[Ru-4]234([n+]2ccccc2-c2cccc[n+]23)[n+]2ccccc2-c2cccc[n+]24)cc1.F[P-](F)(F)(F)(F)F [Compound 3d, Bis(2,2′-bipiridine)[N-((phenyl-κC^2)methyliden]-4-ethylaniline-κN]ruthenium(II) hexafluorophosphate] | 1.8 | 80 ± 10 | 3.3 | 150 ± 10 | 45 ± 5 | 
3 |  |  | C1=[N+](c2ccccc2)[Ru-4]23([c]4ccccc41)([n+]1ccccc1-c1cccc[n+]12)[n+]1ccccc1-c1cccc[n+]13.F[P-](F)(F)(F)(F)F [Compound 3a, Bis(2,2′-bipiridine)[N-((phenyl-κC^2)methyliden]aniline-κN]ruthenium(II) hexafluorophosphate] | 1.6 | 53 ± 4 | 0.9 | 30 ± 10 | 33 ± 7 | 
4 |  |  | F[P-](F)(F)(F)(F)F.O=[N+]([O-])c1ccc([N+]2=Cc3scc[c]3[Ru-4]234([n+]2ccccc2-c2cccc[n+]23)[n+]2ccccc2-c2cccc[n+]24)cc1 [Compound 3n, Bis(2,2′-bipiridine)[N-((thiophene-2-yl-κC^2)methyliden]-4-nitroaniline-κN]ruthenium(II) hexafluorophosphate] | 2.0 | 530 ± 30 | 3.6 | 960 ± 100 | 270 ± 4 | 
5 | > 100000 | > 200000 | Fc1ccc(/N=C/c2ccccc2)cc1 [Compound 1b] |  |  |  |  |  | 21600
6 |  |  | CCOC(=O)c1ccc([N+]2=Cc3cccc[c]3[Ru-4]234([n+]2ccccc2-c2cccc[n+]23)[n+]2ccccc2-c2cccc[n+]24)cc1.F[P-](F)(F)(F)(F)F [Compound 3g, Bis(2,2′-bipiridine)[N-((phenyl-κC^2)methyliden]-4-ethoxycarbonylaniline-κN]ruthenium(II) hexafluorophosphate] | 1.4 | 140 ± 20 | 2.3 | 230 ± 20 | 100 ± 20 | 
7 | > 100000 | 42100 | CCOC(=O)c1ccc(/N=C/c2ccccc2)cc1 [Compound 1g] |  |  |  |  |  | 25400
8 |  |  | COc1ccc([N+]2=Cc3cccc[c]3[Ru-4]234([n+]2ccccc2-c2cccc[n+]23)[n+]2ccccc2-c2cccc[n+]24)cc1.F[P-](F)(F)(F)(F)F [Compound 3f, Bis(2,2′-bipiridine)[N-((phenyl-κC^2)methyliden]-4-methoxyaniline-κN]ruthenium(II) hexafluorophosphate] | 1.0 | 64 ± 7 | 1.8 | 120 ± 40 | 65 ± 4 | 
9 |  |  | FC(F)(F)c1ccc([N+]2=Cc3scc[c]3[Ru-4]234([n+]2ccccc2-c2cccc[n+]23)[n+]2ccccc2-c2cccc[n+]24)cc1.F[P-](F)(F)(F)(F)F [Compound 3o, Bis(2,2′-bipiridine)[N-((thiophene-2-yl-κC^2)methyliden]-4-(trifluoromethyl)aniline-κN]ruthenium(II) hexafluorophosphate] | 1.7 | 160 ± 30 |  | 150 ± 5 | 96 ± 3 | 
10 |  |  | F[P-](F)(F)(F)(F)F.Fc1ccc([N+]2=Cc3cccc[c]3[Ru-4]234([n+]2ccccc2-c2cccc[n+]23)[n+]2ccccc2-c2cccc[n+]24)cc1 [Compound 3b, Bis(2,2′-bipiridine)[N-((phenyl-κC^2)methyliden]-4-fluoroaniline-κN]ruthenium(II) hexafluorophosphate] | 1.1 | 100 ± 30 | 2.8 | 250 ± 60 | 90 ± 30 | 
11 |  |  | N.N.[Cl][Pt][Cl] [Cisplatin, reference compound] | 8.3 | 22000 | 5.9 |  | 2640 ± 350 | 
12 |  |  | Cc1ccc([N+]2=Cc3cccc[c]3[Ru-4]234([n+]2ccccc2-c2cccc[n+]23)[n+]2ccccc2-c2cccc[n+]24)cc1.F[P-](F)(F)(F)(F)F [Compound 3c, Bis(2,2′-bipiridine)[N-((phenyl-κC^2)methyliden]-4-methylaniline-κN]ruthenium(II) hexafluorophosphate] | 1.0 | 70 ± 10 | 1.7 | 120 ± 10 | 70 ± 6 | 
13 |  |  | CCOC(=O)c1ccc([N+]2=Cc3scc[c]3[Ru-4]234([n+]2ccccc2-c2cccc[n+]23)[n+]2ccccc2-c2cccc[n+]24)cc1.F[P-](F)(F)(F)(F)F [Compound 3m, Bis(2,2′-bipiridine)[N-((thiophene-2-yl-κC^2)methyliden]-4-ethoxycarbonylaniline-κN]ruthenium(II) hexafluorophosphate] | 2.5 | 140 ± 10 | 1.5 | 84 ± 12 | 57 ± 20 | 
14 |  |  | Cc1ccc([N+]2=Cc3scc[c]3[Ru-4]234([n+]2ccccc2-c2cccc[n+]23)[n+]2ccccc2-c2cccc[n+]24)cc1.F[P-](F)(F)(F)(F)F [Compound 3k, Bis(2,2′-bipiridine)[N-((thiophene-2-yl-κC^2)methyliden]-4-methylaniline-κN]ruthenium(II) hexafluorophosphate] | 2.3 | 70 ± 30 | 0.3 | 10 ± 0.4 | 30 ± 2 | 
15 |  |  | CC(C)(C)c1ccc([N+]2=Cc3cccc[c]3[Ru-4]234([n+]2ccccc2-c2cccc[n+]23)[n+]2ccccc2-c2cccc[n+]24)cc1.F[P-](F)(F)(F)(F)F [Compound 3e, Bis(2,2′-bipiridine)[N-((phenyl-κC^2)methyliden]-4-(tert-butyl)aniline-κN]ruthenium(II) hexafluorophosphate] | 1.0 | 68 ± 6 | 2.4 | 170 ± 30 | 70 ± 30 | 
16 |  |  | COc1ccc([N+]2=Cc3scc[c]3[Ru-4]234([n+]2ccccc2-c2cccc[n+]23)[n+]2ccccc2-c2cccc[n+]24)cc1.F[P-](F)(F)(F)(F)F [Compound 3l, Bis(2,2′-bipiridine)[N-((thiophene-2-yl-κC^2)methyliden]-4-methoxyaniline-κN]ruthenium(II) hexafluorophosphate] | 1.0 | 40 ± 10 | 1.0 | 39 ± 10 | 39 ± 3 | 
17 |  |  | F[P-](F)(F)(F)(F)F.O=[N+]([O-])c1ccc([N+]2=Cc3cccc[c]3[Ru-4]234([n+]2ccccc2-c2cccc[n+]23)[n+]2ccccc2-c2cccc[n+]24)cc1 [Compound 3h, Bis(2,2′-bipiridine)[N-((phenyl-κC^2)methyliden]-4-nitroaniline-κN]ruthenium(II) hexafluorophosphate] | 1.5 | 370 ± 80 | 3.0 | 760 ± 80 | 250 ± 30 | 
18 |  |  | F[P-](F)(F)(F)(F)F.Fc1ccc([N+]2=Cc3scc[c]3[Ru-4]234([n+]2ccccc2-c2cccc[n+]23)[n+]2ccccc2-c2cccc[n+]24)cc1 [Compound 3j, Bis(2,2′-bipiridine)[N-((thiophene-2-yl-κC^2)methyliden]-4-fluoroaniline-κN]ruthenium(II) hexafluorophosphate] | 1.4 | 60 ± 10 | 2.1 | 91 ± 9 | 43 ± 3 | 
